Results on 87 molecules are retold here after a melting point compilation (Tetko et al.; mined from patent text by program, amines drawn as free bases though some values may be those of a salt).

One may read the melting point as the temperature of the solid-liquid transition.

Molecule `Cc1ccc(-c2nc3ccc(CN4CCN(C)CC4)cc3[nH]2)cc1C#Cc1cnc2cccnn12` came in with a melting point of 114 to 115 °C.

Turning to `COc1cc(C(O)C(CO)[N+](=O)[O-])cc(OC)c1OC` (configuration not stated), the melting point lay within 155 to 159 °C.

The molecule `COC(=O)CNC(=O)[C@H](NC(=O)OCC1c2ccccc2-c2ccccc21)C(C)C` came in with a melting point of 148 to 150 °C.

The molecule `C=CCNc1nc(NC(C)C)c2scc(C)c2n1` gave a melting point of 106 to 107 °C.

For `Cc1cc(CCCCCCCc2ccc(C3=NCCO3)cc2)on1`, the melting point was 66 to 67 °C.

For `CCN1CSC(=Cc2cc(C(C)(C)C)c(O)c(C(C)(C)C)c2)C1=O`, the melting point fell in the range of 169 to 172 °C.

In turn, `COC(OC)C(C)NC1=Nc2ccc(Cl)cc2C(c2ccccc2Cl)=NC1` (configuration not stated) had a melting point of 153 to 155 °C.

`CCOC(=O)C(C#N)c1ncccc1N` (configuration not stated) gave a melting point of 118 to 119 °C.

`O=C(C1=NN(CC(F)(F)F)C(=O)CN1)c1ccccc1` had a melting point of 142 to 145 °C.

`CC1(CNC(=O)C(F)(F)F)CN(C(c2ccccc2)c2ccccc2)C1` had a melting point of 127 to 128 °C.

As to `CC(CC1CCOCC1)(c1ccc(S(C)(=O)=O)cn1)c1ccc(-c2ccccn2)[nH]1` (configuration not stated), the melting point was in the range of 135 to 136 °C.

In turn, `COC(=O)[C@H](O)[C@@H](N)c1ccccc1` had a melting point of 101 °C.

For the molecule `CC(=O)OC1(C)CC(=O)OC(CCc2ccc(OCc3ccccc3)cc2)C1` (configuration not stated), the melting point fell in the range of 98 to 101 °C.

On to `CC1(C)CCc2c(N)c(Cl)cc(C(=O)O)c2O1`, for which the melting point is 165 °C.

Consider `CN(C)c1ccc2nc(N)c(C#N)c(N=Cc3ccccc3)c2c1`, for which the melting point was 265 °C.

The molecule `c1cc(-n2ccnc2)cc(-n2cnc3cc(-c4ccco4)ccc32)c1` returned a melting point of 175 to 177 °C.

Take `CC(C)(CSc1ccc(Cl)cc1)C(=O)C(Oc1ccc(Cl)cc1)n1cncn1` (configuration not stated): the melting point was found to be 115 °C.

The molecule `CCCc1c(Cc2ccccc2C(=O)O)cccc1OCCCOc1cc(O)c(-c2ccc(F)cc2)cc1CC` came in with a melting point of 150 to 151 °C.

The molecule `COc1cc(C=CC(=O)Nc2cnc3ccc(C)cc3c2-c2ccccc2Cl)cc(OC)c1O` showed a melting point of 235 to 236 °C.

In turn, `COC(=O)CCC(C)C1CCC2C3CCC4CC(N=[N+]=[N-])CCC4(C)C3CC(=O)C12C` (configuration not stated) showed a melting point of 153 °C.

With `O=C(O)c1cccc(NCCOc2cccc3ccccc23)c1`, the melting point lay within 150 to 152 °C.

`C#CCOC(=O)C1=C(C)NC(C)=C(C(=O)OCC)C1c1ccccc1C` (configuration not stated) yielded a melting point of 129 °C.

`O=C(Nc1ccc(C(=O)c2ccccc2)cc1)c1ccc(-c2ccccc2)cc1` displayed a melting point of 212 to 213 °C.

As to `CC(Cc1c[nH]c2ccccc12)(NC(=O)OC1C2CC3CC(C2)CC1C3)C(=O)NCCc1cccc(NC(=O)CCC(=O)O)c1` (configuration not stated), the melting point was 78 to 82 °C.

As for `CC1(C)C(=O)NC(=O)c2ccccc21`, the melting point lay within 84 to 88 °C.

In turn, `CC1=C(C(=O)OC(C)(C)C)C(c2ccccc2F)C(C(=O)OC(C)(C)C)=C(C)N1` yielded a melting point of 201 to 202 °C.

In the case of `CNC(=O)c1ccccc1Nc1nc(Nc2cc3c(cc2OC)CCN(CC(=O)N(C)C)CC3)ncc1Cl`, the melting point lay within 83 to 89 °C.

`O=C(Nc1ccc(S(=O)(=O)C(F)(F)F)cc1)Nn1cnc2ccccc2c1=O` showed a melting point of 118 to 121 °C.

`OCc1cnoc1-c1ccc(Cl)cc1Cl` registered a melting point of 76 to 77 °C.

On to `COC(=O)c1cc(-c2c(-c3ccccc3)nn3ccccc23)cn(C)c1=O`, for which the melting point lay within 268 to 270 °C.

`Cc1nnc(-c2ccc3occ(-c4ccc(C(F)(F)F)cc4)c3c2)o1` returned a melting point of 190 to 191 °C.

In the case of `COC(=O)Nc1nc2ccc(Sc3ccccc3)cn2c1C(=O)C(F)(F)F`, the melting point lay within 171 to 173 °C.

The molecule `O=C1c2ccc(Cl)cc2OCN1CCO[N+](=O)[O-]` registered a melting point of 86 to 88 °C.

For `CC(C)c1cc(C2SCC(=O)N2CCCCl)cc(C(C)C)c1O` (configuration not stated), the melting point lay in the range of 105 to 106 °C.

Molecule `N#Cc1nn(-c2c(Cl)cc(C(F)(F)F)cc2Cl)c(N)c1C1CC1(Br)Br` (configuration not stated) displayed a melting point of 178 to 179 °C.

Molecule `Cc1sc(-c2ccc(Cl)cc2)nc1O` yielded a melting point of 198 to 199 °C.

`Cc1ccc(CN2CCc3ccc(C(=O)CCC(=O)N4CCC(c5ccc(Cl)cc5)CC4)cc3CC2)cc1` yielded a melting point of 137 to 138 °C.

Regarding `CCOC(=O)NC(=O)c1c(Cl)ccc2c(C(F)(F)F)c(OC)ccc12`, the melting point is 169 to 171 °C.

In turn, `Oc1ccc(-c2ccc(C#CC3(O)CN4CCC3CC4)cc2)cc1` (configuration not stated) gave a melting point of 230 to 233 °C.

As to `CN(C)CCNc1ncc(C(=O)N(C)Cc2cc(C(F)(F)F)cc(C(F)(F)F)c2)c(-c2ccccc2)n1`, the melting point amounted to 110 °C.

As to `COC(=O)c1ccc(C(=O)OC)c(SCc2ccccc2)c1`, the melting point is 90 to 93.5 °C.

`N#CCC(=O)Nc1ccc(S(=O)C(F)(F)F)cc1` (configuration not stated) gave a melting point of 164 to 165 °C.

Consider `CC1(C2C(=O)N(CC(F)(F)F)c3ccccc32)OCCO1` (configuration not stated), for which the melting point lay in the range of 87 to 89 °C.

`COC1OC(COCc2ccccc2)C(OCc2ccccc2)C(NC(C)=O)C1OCc1ccccc1` (configuration not stated) returned a melting point of 147 to 151 °C.

The molecule `CC(C)(C)OC(=O)NNc1ccc2ccccc2n1` came in with a melting point of 148 to 150 °C.

On to `BrCc1ccc2c(c1)CCO2`, for which the melting point is 57 to 60 °C.

`Cc1cc(C)c2c(n1)N(CCCCl)c1ccccc1N(C)C2=O` returned a melting point of 161 to 163 °C.

Molecule `COCCOc1ccc(CCNC(=O)C(F)(F)F)cc1S(=O)(=O)N=CN(C)C` showed a melting point of 134 to 136 °C.

Take `CC(C)(C)[Si](C)(C)Oc1ccccc1-c1cc(-c2ccc([N+](=O)[O-])cc2)c(C#N)c(NC(=O)c2cccs2)n1`: the melting point is 168 to 169 °C.

As to `CC(C)NC(C)C(=O)Nc1cccc2c1C(=O)c1c(NC(=O)C(C)NC(C)C)cccc1C2=O` (configuration not stated), the melting point was 105 to 106 °C.

In turn, `Cc1ccc(Oc2nc3ccc(N=C=S)cc3s2)cc1` showed a melting point of 121 to 123 °C.

As for `CCCC(=O)c1cc2c(=O)cc(C(=O)O)[nH]c2c(C)c1C`, the melting point was 267 to 269 °C.

Molecule `OCCNc1nc(NCCO)nc(Nc2ccccc2Cl)n1` returned a melting point of 108 to 110 °C.

Take `CCOCc1nc2c(c(C)c(C)n3nnnc23)n1CCNC(=O)OC(C)(C)C`: the melting point fell in the range of 197 to 199 °C.

Consider `O=C(Nc1ccc(C=CCN2C(=O)c3ccccc3C2=O)cc1)c1ccccc1-c1ccc(C(F)(F)F)cc1`, for which the melting point turned out to be 190 °C.

With `FC(F)(F)c1cccc(Nc2nc3ccccc3o2)c1`, the melting point was in the range of 193 to 194 °C.

Molecule `CN(CCCO)C(=O)c1c2ccc(Cl)cc2c(-c2ccccc2)n1C` returned a melting point of 85 to 88 °C.

`O=C(OC(Cc1ccccc1)C(=O)O)c1ccccc1` (configuration not stated) came in with a melting point of 113 °C.

Turning to `COc1ccc(CC(N)=O)cc1C(=O)NCc1ccc(C(F)(F)F)cc1`, the melting point is 192 to 193 °C.

`Cc1ccnc(C)c1Cn1nnnc1-c1cccc(Cl)c1Cl` came in with a melting point of 146 to 148 °C.

`C#Cc1cccc(N2C(=O)C=CC2=O)c1` came in with a melting point of 129 to 131 °C.

As to `CN(C)c1c(O)ccc2c1CCC1C2CCC2(C)C(=O)CCC12` (configuration not stated), the melting point was 155 to 156 °C.

In the case of `CCCc1c(C(=O)C(C)C)c2ccc(C(N)=O)cc2n1Cc1ccc(Cl)cc1`, the melting point fell in the range of 183 to 184 °C.

For `Nc1cc(-n2cccn2)nc(-c2ccc(Cl)o2)n1`, the melting point lay in the range of 210 to 211 °C.

For `CC(C)C(NC(=O)OCCN1CCOCC1)C(=O)NC(Cc1ccccc1)C(O)C(Cc1ccccc1)NC(=O)C(NC(=O)OCc1ccccc1)C(C)C` (configuration not stated), the melting point fell in the range of 159 to 161 °C.

`CC(C)(Oc1ccc(CCC(=O)c2cc(-c3ccc(C(F)(F)F)cc3)cs2)c(Cl)c1Cl)C(=O)O` came in with a melting point of 99 to 101 °C.

In the case of `O=c1c(C2CCCC2)coc2cc(O)cc(Cl)c12`, the melting point lay within 282 to 284 °C.

Consider `CN(C)C1(c2ccccc2)CC=C(c2cn(S(=O)(=O)c3ccccc3)c3ccccc23)CC1` (configuration not stated), for which the melting point lay within 165 to 167 °C.

For the molecule `CCOC(=O)C(OC)C(=O)Nc1cc(Cl)cc(Cl)c1` (configuration not stated), the melting point was in the range of 89.5 to 92.5 °C.

`Cc1cccc(Oc2nc(-c3c[nH]nc3C)cs2)n1` came in with a melting point of 138 to 139 °C.

Consider `CCOc1ccc([N+](=O)[O-])cn1`, for which the melting point lay in the range of 85 to 88 °C.

For the molecule `CN1Cc2c(C#CC(C)(C)O)ncn2-c2cccc(Br)c2C1=O`, the melting point lay within 207 to 208 °C.

On to `COc1cc(OC)nc(C2OC(=O)c3c(-c4ccccc4)ccnc32)n1` (configuration not stated), for which the melting point fell in the range of 151 to 154 °C.

The molecule `CC12CCCc3cc(NS(=O)(=O)c4ccc(C(=O)O)cc4)cc(c31)CCC2` showed a melting point of 215 to 217 °C.

For the molecule `Nc1cc(N2C(=O)C3=C(CCCC3)C2=O)c(F)cc1Cl`, the melting point fell in the range of 164 to 165 °C.

In turn, `COc1ccc(-c2c(-c3cc(OC)c(OC)c(OC)c3)ncn2-c2cc(OC)c(OC)c(OC)c2)cc1O` came in with a melting point of 154 to 156 °C.

`COc1ccc(Cl)n2nc(S(=O)(=O)Cl)nc12` showed a melting point of 149 to 151 °C.

`Cc1nnccc1-c1c(-c2ccccc2)nn2ccccc12`: the melting point fell in the range of 209 to 214 °C.

As to `Oc1ccc([C@H]2c3ccc(OCc4ccccc4)cc3OC[C@H]2c2ccccc2)cc1` (racemic), the melting point lay within 204 to 205 °C.

Molecule `CCCCNC(=O)c1cc([N+](=O)[O-])cnc1C` yielded a melting point of 98 to 99 °C.

Turning to `O=C(Cc1ccccc1)Nc1ccccc1SCc1ccc(Cl)cc1`, the melting point lay in the range of 100 to 101 °C.

Consider `COc1ccc(Cl)cc1NC(=O)[C@H]1[C@H](c2ccc(S(N)(=O)=O)c(C)c2)C1(C)C` (relative stereo), for which the melting point lay in the range of 118 to 121 °C.

The molecule `CC(C)(C)[Si](C)(C)Oc1cccc(C(O)C(c2ccccc2)C2SCCCS2)c1` (configuration not stated) displayed a melting point of 75 to 76 °C.

With `O=C(CNc1ccc2[nH]c(=O)sc2c1)N1CCC(Cc2ccc(F)cc2)CC1`, the melting point lay in the range of 149 to 155 °C.

For the molecule `COc1ccc2c(c1)OCC(c1ccccc1)C2c1ccc(OCCN2CCCC2)cc1` (configuration not stated), the melting point is 113 to 114 °C.

Take `CN(c1cccc2cc(C(N)=O)[nH]c12)S(=O)(=O)c1ccccc1C(F)(F)F`: the melting point lay in the range of 223 to 224 °C.

In turn, `CCCCCCCCCCCCCCCCC[C@@H](O)CC(=O)OC` showed a melting point of 64 to 64.5 °C.
